Results on one molecule are retold here after patent US12290564B2, “Methods and apparatuses for treating tumors” (RenovoRx, Inc., priority 2017, dated 2025).

For this assay, the system named is locally advanced pancreatic cancer. The assay is described as follows: Post-market registry study: intra-arterial (TAMP) delivery of gemcitabine with the RenovoCath RC120 catheter. The assay is classed as in vivo, human. As for the experimental part:
A post-market registry study was conducted to assess patient survival and clinical outcomes using the RenovoCath™ RC120 catheter (RenovoRx, Los Altos, Calif.) in a clinical, prospective observational setting when used to deliver a chemotherapeutic to the pancreas as described in Table 1. [table] […] An interventional radiologist used the RenovoCath™ RC 120 catheter to optimize drug delivery to the tumor(s). At the conclusion of the case, the femoral artery arteriotomy was sealed and patient monitored as per standard institutional protocol. All patients enrolled during the two-year registry enrollment period were followed periodically for survival outcome. Patients were contacted by telephone at the following intervals after the final intra-arterial treatment: 6 months±30 days, 1 year±30 days and 2 years±30 days. Patients were assessed for serious adverse events with specific attention to events related to local delivery of chemotherapeutic agents to the pancreas and device performance. FIG. 10 is a graph 1000 illustrating the effect of the TAMP technique on patient survival after radiation therapy compared with the effect of the TAMP technique with no radiation therapy. Fifteen patients with locally advanced pancreatic cancer were treated with gemcitabine in a dose-escalated protocol administered in four cycles using the TAMP technique. […]

With `Nc1ccn([C@@H]2O[C@H](CO)[C@@H](O)C2(F)F)c(=O)n1` [gemcitabine], the “survival rates (survival percentage) of patients” value (gemcitabine by TAMP (eight treatments, or more than two treatments) compared with systemic infusion of gemcitabine (Chauffert et al. 2008), FIG. 9) is reported as “greater than the survival rates of the patients given systemic infusion of the same drug”. Moreover, the patient survival result (gemcitabine by TAMP, dose-escalated, four cycles, patients with prior radiation vs no prior treatment or only prior systemic chemotherapy, FIG. 10) is given as “significant improvement in survival”.
